# Patent US20220308044A1, “NOVEL LIVE-CELL ASSAY FOR NEURONAL ACTIVITY” (UNIVERSITY OF UTAH RESEARCH FOUNDATION, priority 2019, published 2022)
# B1: BDNF: a neurotropic factor that enhances synapse formation and transmission (protein, UniProt P23560 19-247, looked up)
# Neurotrophic factor BDNF …: APMKEANIRGQGGLAYPGVRTHGTLESVNGPKAGSRGLTSLADTFEHVIEELLDEDQKVRPNEENNKDADLYTSRVMLSSQVPLEPPLLFLLEEYKNYLDAANMSMRVRRHSDPARRGELSVCDSISEWVTAADKKTAVDMSGGTVTVLEKVPVSKGQLKQYFYETKCNPMGYTKEGCRGIDKRHWNSQCRTTQSYVRALTMDSKKRIGWRFIRIDTSCVCTLTIKRGR
# Experiments:
# [1] = test system: WT neurons; assay: Secreted Neuronal Activity Reporter (SNAR) dual secreted luciferase assay in primary neuronal cultures; format: cell-based, mouse; details: for effect of individual inhibitors on SNAR activity: prolonged treatment, FIG. 3A
# [2] = test system: CamKII neurons; assay: Cre-dependent (floxed) SNAR assay with CamKII:Cre; format: cell-based, mouse; details: FIG. 6C
# Method: Plasmid Cloning. The SNAR construct was synthesized by first introducing 2 core SARE (cSARE) sequences into an AAV vector backbone that included the Arc minimal promoter and the Gaussia luciferase coding sequences using inFusion cloning. A single cSARE sequence was synthesized using a long primer that was then used as a PCR template. Two additional cSARE sequences were then added, one at a time preceding the first 2 cSAREs. The entire 4× cSARE-ArcMin-Gluc was then cloned as an insert into an FCK vector (Addgene, Watertown, Mass.; catalog no. 51694) using restriction enzymes PacI and EcoRI for use as a transfer plasmid and packaging into lentivirus particles. Secreted Nanoluciferase (sNluc) was obtained by adding the Ig-kappa signal peptide to its N-terminus using a long primer. sNluc was then inserted into an FCK vector with the hPGK promoter. Each construct was then cloned into a DIO vector backbone (Addgene, Watertown, Mass.; catalog no. 87168) to obtain a Cre-dependent expression construct. […]
# Luciferase Assays. To determine luciferase activity luminescencence from media samples was measured. […] For substrates, Coelenterazine (CTZ)-native (NanoLight Technology, Pinetope, Ariz.; catalog no. 303) and FMZ (Promega NanoGlo Assay; Promega, Madison, Wis.; catalog no. N1110) were added using a micro-injector connected to the plate reader (BioTek Synergy HT; Winooski, Vt.). […]
molecule,measurement,setting,value
N#CC(=C(/N)Sc1ccccc1N)/C(C#N)=C(\N)Sc1ccccc1N [U0126],effect on SNAR activity / accumulation,[1],significantly suppressed SNAR accumulation
NC(CCCP(=O)(O)O)C(=O)O (centres unmarked) [AP5],effect of individual inhibitors on SNAR activity,[1],dramatically suppressed SNAR activity
same,effect on reporter accumulation,[2],decrease in reporter accumulation similar to that of the non-specific reporter
O=C1NC(=O)C(c2ccccc2)(c2ccccc2)N1 [phenytoin],effect on reporter activity,"[1]; 80 μM, at DIV14, FIG. 4A",significantly reduced reporter activity
N#Cc1cc2[nH]c(=O)c(=O)[nH]c2cc1[N+](=O)[O-] [CNQX],time after treatment at which the increase in SNAR activity was observed,"[1]; kinetic analysis, chronic blockage of AMPAR-mediated transmission, FIG. 3B",16 to 40 h
same,effect of individual inhibitors on SNAR activity,[1],increased SNAR activity
"NC(=O)N1c2ccccc2C=Cc2ccccc21 [CBZ, carbamazepine]",effect on SNAR,"[1]; 50 μM, FIG. 4A",reduced SNAR
B1,effect on reporter activity compared to a vehicle control,"[1]; 50 ng/mL, 16 hours and 40 hours after the treatment, FIG. 4B",significantly and robustly increased reporter activity
